In patent US20220389389A1, “METHODS AND A KIT TO REPROGRAM SOMATIC CELLS” (Novoxyne LLC, priority 2019, published 2022):

Key:
spleen cells = experiment: MSAIC inhibition assay with GsMTX4, PI gene messages by real time PCR; type: cell-based, mouse
Method: (§1) C57BL/6 male mice (4-6 weeks old) were purchased from Jackson Laboratory. Bone marrow cells and spleen cells were obtained from 4-6-week-old male C57BL/6 mice. Cells in single cell suspension were red cell-depleted before use. Bone marrow stromal cells were cultured and passaged in T75 culture flask as it was described [Torino et al., Bio-protocol 4: e1031 (2014)]. The embryonic fibroblast was prepared from 13-day fetus of C57BL/6 as described previously [Qiu et al., Bio-protocol 6: e1859 (2016)]. Cells used for the reprogramming were those cultured for 2 to 4 passage periods.
Cells were cultured in 6 well plates (10^7 cells/well) in triplicate per group. GsMTX4 dissolved in PBS was added to the concentration 5 μM in the experimental group. Sixteen hours later, cells were harvested by scraper for spleen cells and bone marrow cells, pelleted for total RNA-extraction with RNeasy (Qiagen) or Trizol (Invitrogen). For EF cells and BM stromal cells, cell culture medium was drained and directly resuspended to the cell lysis buffer in the culture wells. Extracted RNAs were subjected to cDNA synthesis (Applied Bioscience) and analyzed for the messages specific for mouse PI genes and control genes by real time PCR thereto cycler (Bio-Rad, CFX384). Primers used were: Oct4 (5′: […] (SEQ ID NO:5), 3′: […] (SEQ ID NO:6), Sox2 (5′: […] (SEQ ID NO:7), 3′: […] (SEQ ID NO:8), Nanog (5′: […] ([…]), 3′: […] (SEQ ID NO:10), CFBP/α (5′: […] (SEQ ID NO:11), 3′: […] (SEQ ID NO:12), c-Myc (5′: […] (SEQ ID NO:13), 3′: TTATGCACCAGAGTTTCG (SEQ ID NO:14), RUNX1 (5′: […] (SEQ ID NO:15), 3′: […] (SEQ ID NO:16), PU1 (5′: […] (SEQ ID NO:17), 3′: […] (SEQ ID NO:18), IRF8 (5′: […] (SEQ ID NO:19), 3′: […] (SEQ ID NO:20), FOXP1 (5′: […] (SEQ ID NO:21), 3′: […] (SEQ ID NO:22), KLF4 (5′: […] (SEQ ID NO:23), 3′: […] (SEQ ID NO:24), Actin (5′: […] (SEQ ID NO:25), 3′: […] (SEQ ID NO:26), GAPDH 5′: […] (SEQ ID NO:27), 3′: […] (SEQ ID NO:28). […]
Spleen cells were 37° C.-treated with MβCD before the in vitro culture with GsMTX4 as described in FIG. 1. ND: not detected.

EF cells [1] = experiment: RT-PCR assay for the expression of PI genes in the reprogramming cultures of EF cells; type: cell-based, mouse
Method: Cells were suspended in DMEM supplemented with 5 mM MβCD at the concentration of 2×10^6/ml in 15 ml centrifuge tube. Cell suspension was incubated for 30 min at 37° C. with every 5 min gentle agitations. Washed once with 37° C. warmed DMEM/F12 and resuspended in small volume complete medium (30 μl/2×10^6 cells) [DMEM/F12 (Corning), 20% knockout serum replacement (Gibco), 1% nonessential amino acids (Gibco), 5×10^−5M 2-Mercaptethanol]. To initiate reprogramming culture on hydrogel, petri dish was added with 2.5 ml complete medium, then 30 μl of cell suspension was loaded on the hydrogel. Multiple dishes were housed in a 15 cm diameter petri dish with a water filled un-lid 6 cm petri dish. Cells on the gel and on the dish-bottom surface were monitored daily and the remarkable phenotype cells were recorded with EVOS cell monitoring system (Thermofisher). Various phenotype cells were characterized by the assays for the markers specific for the cell lineages (e.g., Oil red 0 for the adipocytes and alizarin for calcium deposited cells) as commonly available methods.
Cells derived from the MβCD-treated and hydrogel-exposed culture in petri dish were subjected to the extraction of total RNA by Trizol. cDNAs were prepared as described above and the regular PCR was performed (35 cycle) using PCR master mix (Biotool) and the primers listed above for the real time PCR assays. The PCR products were resolved using 1.5% agarose gel, Ethidium Bromide-stained and the results were acquired by Gel Documentation system (Bio-Rad).
EF cells were MβCD-treated and cultured in the hydrogel-casted petri dishes for 7 days before RNA extraction. The stiffness of the hydrogel was listed on the top of each lane. Total RNAs from spheres and dish-adhered cells were analyzed for the expression of the PI genes by RT-PCR. PCR-amplified fragments were dissolved by 1.5% agarose gel and stained by Ethidium Bromide. […]
EF cells were MβCD-treated and cultured in the petri dishes. […] The message for each PI gene was analyzed as described in FIG. 1 and shown in B.

EF cells [2] = experiment: Reprogramming and differentiation culture of EF cells, microscopy and staining; type: cell-based, mouse
Method: (§2) Tissue culture plates with defined elasticity surface (0.2, 4, 50 kpa) were purchased from Matrigen. To cast polyacrylamide gel in petri-dishes, 3.5 cm petri-dish was used. Each dish was loaded with 330 μL of polyacrylamide gel cocktail and promptly the size-matched drop lid (polypropylene) was placed on the top (FIG. 30). Three different elasticities of the polyacrylamide gel were prepared in the study. The ratio of [acrylamide (40%): bis-acrylamide (2%): water] was determined according from the published data [Tse and Engler, Curr. Protoc. Cell Biol. Chapt. 10 Unit 10.16 (2010)]. Those were (75:112.5:812.5) for 1.7 kpa, (100:150:750) for 3.2 kpa and (250:30:720) for 7.4 kpa. The slice of the 50 ml conical centrifuge tube caps were used for the drop caps (arrow-pointed in FIG. 30).
Ninety minutes later drop lids were carefully removed and the gels in the dishes were washed 5 times with 3 ml of sterile water. Each aspiration of the water from the dish was gently performed with 1 ml micro pipettor. During the washing, casted acrylamide gel come off the bottom. […]
Cells were suspended in DMEM supplemented with 5 mM MβCD at the concentration of 2×10^6/ml in 15 ml centrifuge tube. […] Cells on the gel and on the dish-bottom surface were monitored daily and the remarkable phenotype cells were recorded with EVOS cell monitoring system (Thermofisher). […]

Human PBMC = experiment: Nuclear reprogramming of human peripheral blood mononuclear cells; type: cell-based; conditions: 5 mM MβCD twice 20 min, then soft polyacrylamide gel culture
Source text: Human PBMC is an attractive source of somatic cells for reprogramming to stem cells by the available iPSC technology. The sampling of the peripheral blood is a common practice in the medicine and possible to obtain at the individual specific fashion. The purification of the PBMC is also a regular method by Ficol gradient centrifugation. […] 27, 10-(2018), U.S. Pat. No. 9,447,382B2]. To investigate if the methods of the current invention can apply to reprogram human PBMC into the stem cell-like cells, and also differentiate into the de novo phenotypes in vitro, experiments were conducted in which cell were treated with MβCD and then cultured on the soft polyacrylamide gel as described infula.
Human peripheral blood was corrected into the heparinized tube from left forearm vein. The blood mononuclear cells were separated using the Ficoll-Hypaque technique (density, 1.077; Pharmacia Biotech, Uppsala, Sweden). Cells were twice repeatedly 37° C. incubated for 20 min with 5 mM MβCD in DMEM, pelleted by centrifugation at 900 g at room temperature. Washed once with 37° C. warmed DMEM/F12 and resuspended in small volume complete medium (30 μl/2×10^6 cells) [DMEM/F12 (Corning), 20% knockout serum replacement (Gibco), 1% nonessential amino acids (Gibco), 5×10^−5M 2-Mercaptethanol]. Cells in the culture petri-dishes were monitored daily by microscopy and novel phenotype cells were recorded. […]

[3] = cited from earlier work
PIFs = conditions: in vitro culture; cited from earlier work
[4] = tested on: iPSC generation from fibroblasts; conditions: without c-Myc and Klf4; cited from earlier work
bone marrow cells = experiment: MSAIC inhibition assay with GsMTX4 / matrix stiffness culture, PI gene messages by real time PCR; type: cell-based, mouse; conditions: 5 μM GsMTX4, 16 hours
Method: as §1
Cells were cultured in 6 well plates (10^7 cells/well) in triplicate per group. GsMTX4 dissolved in PBS was added to the concentration 5 μM in the experimental group. Sixteen hours later, cells were harvested by scraper for spleen cells and bone marrow cells, pelleted for total RNA-extraction with RNeasy (Qiagen) or Trizol (Invitrogen). For EF cells and BM stromal cells, cell culture medium was drained and directly resuspended to the cell lysis buffer in the culture wells. Extracted RNAs were subjected to cDNA synthesis (Applied Bioscience) and analyzed for the messages specific for mouse PI genes and control genes by real time PCR thereto cycler (Bio-Rad, CFX384). Primers used were: Oct4 (5′: […] (SEQ ID NO:5), 3′: […] (SEQ ID NO:6), Sox2 (5′: […] (SEQ ID NO:7), 3′: […] (SEQ ID NO:8), Nanog (5′: […] ([…]), 3′: […] (SEQ ID NO:10), CFBP/α (5′: […] (SEQ ID NO:11), 3′: […] (SEQ ID NO:12), c-Myc (5′: […] (SEQ ID NO:13), 3′: TTATGCACCAGAGTTTCG (SEQ ID NO:14), RUNX1 (5′: […] (SEQ ID NO:15), 3′: […] (SEQ ID NO:16), PU1 (5′: […] (SEQ ID NO:17), 3′: […] (SEQ ID NO:18), IRF8 (5′: […] (SEQ ID NO:19), 3′: […] (SEQ ID NO:20), FOXP1 (5′: […] (SEQ ID NO:21), 3′: […] (SEQ ID NO:22), KLF4 (5′: […] (SEQ ID NO:23), 3′: […] (SEQ ID NO:24), Actin (5′: […] (SEQ ID NO:25), 3′: […] (SEQ ID NO:26), GAPDH 5′: […] (SEQ ID NO:27), 3′: […] (SEQ ID NO:28). The value of each Cq (Ct) were applied to the formula by which the message level of each specific gene (shown by the index value) was estimated in comparison to that of Actin or GAPDH housekeeping genes.
as §2
In experiments, mouse bone marrow cells were in vitro 37° C. cultured 16 hours in the presence of 5 μM GsMTX4. Cells were then assayed for the PI genes' messages as listed in the left of the FIG. 1. […] The presence of GsMTX4 in the culture was expected to prevent cells from sensing the strong stretch stress by MSAICs. Strikingly, the cells cultured in the presence of GsMTX4 expressed greater than 100 times of Oct4 message compared with the control cells (FIG. 1). […] 10(1): e1004079 (2014); North et al., Stem Cells. 22:158 (2004)].
The fresh bone marrow cells were cultured for 16 hours in 6 well plates with GsMTX4 (5 μM) in DMEM supplemented with 10% FBS. The messages specific for the genes listed in the left were real time PCR-characterized and presented as the relative index in comparison with the value of β-actin message. […]

[5] = tested on: bone marrow stroma cell line; experiment: MSAIC inhibition assay with GsMTX4, PI gene messages by real time PCR; type: cell-based, mouse; conditions: GsMTX4, O/N culture
Method: as §1
(§3) Cells were cultured in 6 well plates (10^7 cells/well) in triplicate per group. GsMTX4 dissolved in PBS was added to the concentration 5 μM in the experimental group. Sixteen hours later, cells were harvested by scraper for spleen cells and bone marrow cells, pelleted for total RNA-extraction with RNeasy (Qiagen) or Trizol (Invitrogen). For EF cells and BM stromal cells, cell culture medium was drained and directly resuspended to the cell lysis buffer in the culture wells. Extracted RNAs were subjected to cDNA synthesis (Applied Bioscience) and analyzed for the messages specific for mouse PI genes and control genes by real time PCR thereto cycler (Bio-Rad, CFX384). […]

EF cells [6] = experiment: as above; type: cell-based, mouse
Method: as §1, §3

Q: What does the source list for methyl-β-cyclodextrin [MβCD]?
A: PI genes expression in response to GsMTX4 after MβCD treatment (spleen cells; 37° C. MβCD treatment, then GsMTX4 O/N culture): activation of PI genes; time to detection of un-spliced PI gene messages after cholesterol depletion (EF cells [1]; MβCD-treated EF cells attached to dish bottom): ≤ 24 h; presence of spliced PI gene messages (EF cells [1]; MβCD-treated EF cells attached to dish bottom, day 1, 4, 7): present only in the cells cultured 7 days; messages for Oct4, Nanog, and Sox2 at predicted sizes in bottom-adhered cells (EF cells [1]; MβCD-treated, hydrogel-casted petri dishes, 7 days): significant messages; efficiency of generating stem cell-like / differentiated cells (EF cells [2]; EF cells): greater efficiency than that of the hydrogel only; sphere formation on hydrogel (EF cells [2]; MβCD, then low pascal hydrogels (1.7, 3.2, 7.4 kpa), O/N culture): formation of various size spheres were observed; appearance of novel-phenotype cells (Human PBMC): observed novel-phenotype cells

Q: For `Cc1c(C(=O)Nc2cccc(C(F)(F)F)c2)cc(-c2ccccc2)n1CCCN1CCOCC1` [HC 067047], which solubility [3] is on record?
A: only soluble in DMSO or alcohols

Q: Which “expression of PIFs” value (PIFs) does the source give for `C[S+](C)[O-]` [DMSO] here?
A: repressed

Q: For `CCCC(CCC)C(=O)O` [Valproic acid], which “increase of reprogramming efficiency over the four transcription factor method” value [4] is on record?
A: 100 fold

Q: For GsMTX4, which C/EBPα expression (bone marrow cells) is on record?
A: activated prominently

Q: What about the “FOXP1 (non-PI gene) expression change” value (bone marrow cells) of the same compound?
A: the expression change was small

Q: What about the “IRF8 (non-PI gene) expression change” value (bone marrow cells) of the same compound?
A: the expression change was small

Q: What about the RUNX1 expression (bone marrow cells) of the same compound?
A: activated prominently

Q: And the Sox2 expression (bone marrow cells)?
A: activated prominently

Q: And the “Oct4 message compared with the control cells” value (bone marrow cells; 37° C., polystyrene surface)?
A: greater than 100 times

Q: And the PI genes expression (spleen cells; GsMTX4, 16 hours)?
A: consistently repressed

Q: And the PI genes expression (spleen cells; GsMTX4, day 3)?
A: activation of the PI genes was significantly observed

Q: What about the PI genes expression [5] of the same compound?
A: resembled to that of fresh bone marrow cells

Q: What about the PI genes expression (EF cells [6]; GsMTX4, 16 hours) of the same compound?
A: responded like that observed in the study of fresh spleen cells

Q: And the PI genes expression (EF cells [6]; GsMTX4, day 3)?
A: found activated

Q: And the solubility [3]?
A: water soluble
